Here are results for three compounds from patent EP2282358A1, “Host material for light-emitting devices” (Solvay SA, priority 2009, dated 2011).

Each structure is given as a SMILES string. Where two headings read alike, the source gives them in different places. Some results are limits rather than exact numbers.

A short description of data set [1]: Solubility tests in organic solvents. The class given is physicochemical. As to conditions: for solubilities toward chlorobenzene and toluene: result in words.
Data set [2] is described as follows: HOMO and LUMO measurement (cyclic voltammetry and optical energy gap). The class given is physicochemical. The settings on record: for HOMO: estimated from the LUMO level and the optical energy gap (UV-visible absorption onset); for LUMO: from peak potential of 1st reduction wave, cyclic voltammetry in anhydrous tetrahydrofuran, ferrocene internal standard. As to the method:
The LUMO (lowest unoccupied molecular orbital) levels are estimated from cyclic voltammetry. Voltammetric measurements are performed using a PC-controlled Autolab PGSTAT128N electrochemical workstation coupled with a 663 VA Stand measure unit. Cyclic voltammograms are recorded at room temperature under an argon atmosphere in anhydrous tetrahydrofuran using 0.1 M tetrabutylammonium hexafluorophosphate (Fluka electrochemical grade) as supporting electrolyte. The working electrode is a glassy carbon disk and the counter electrode is a platinum wire or a glassy carbon rod. A silver/silver chloride electrode filled with a methanolic saturated KCl solution or a platinum wire pseudo-reference has been used as reference electrode. The sample solutions (0.5 mM) are outgassed with argon for 10 minutes before measurement. Measurements are performed with a sweep rate fixed to 0.1 V/s. Ferrocene is used as internal standard.
The LUMO level is estimated from the peak potential of the 1st observed reduction wave (E1 reduct.) using the following equation: ELUMO -(-4.8) = -[E1 reduct-EOX ½(Fc/(Fc)^+)] [formula] where EHOMO (ferrocene) has been taken equal to -4.8 eV below the vacuum level and EOX ½ (Fc/Fc^+) corresponds to the half-wave oxidation potential of the ferrocene internal standard.
The HOMO level could not be estimated directly from CV measurements because the 1st oxidation wave lies beyond the stability window of the two tested solvents (tetrahydrofuran and dichloromethane). The HOMO level is thus estimated from the LUMO level and optical energy gap (Eopt g): EHOMO = ELUMO -Eopt g , [formula] the optical energy gap being determined from the absorption onset in the UV-visible absorption spectrum.

Regarding `CC(C)(C)c1ccc(-c2nnc(-c3cc(-c4nnc(-c5ccc(C(C)(C)C)cc5)o4)cc(C(F)(F)C(F)(F)C(F)(F)C(F)(F)C(F)(F)C(F)(F)F)c3)o2)cc1` [Formula C6F13-OXD7], the “solubilities toward chlorobenzene and toluene” value in data set [1] is “good solubilities”. In addition, the Solubility in chlorobenzene in data set [1] (solvent chlorobenzene) was above 4.5 wt%. Further, the Solubility in toluene in data set [1] (solvent toluene) came to 2.5 wt%. Besides, in data set [2], the HOMO was -6.1 eV and the LUMO was -2.5 eV.
Take `CC(C)(C)c1ccc(-c2nnc(-c3cccc(-c4nnc(-c5ccc(C(C)(C)C)cc5)o4)c3)o2)cc1` [OXD7, reference compound]: in data set [1], the Solubility in chlorobenzene was below 1.5 wt%, the Solubility in toluene result is reported as “Not soluble” and the “solubility for most organic solvents” value is “lacks solubility”. Also, in data set [2], the HOMO is recorded as -6.0 eV and the LUMO is listed as -2.3 eV.
As to `CC(C)(C)c1ccc(-c2nnc(-c3cc(-c4nnc(-c5ccc(C(C)(C)C)cc5)o4)cc(C(C)(C)C)c3)o2)cc1` [tBu-OXD7], in data set [1], the “solubilities toward chlorobenzene and toluene” value is recorded as “good solubilities”. For the same compound, in data set [1] (solvent chlorobenzene), the Solubility in chlorobenzene is above 7.2 wt%. The compound also registered a Solubility in toluene in data set [1] (solvent toluene) above 5 wt%. In data set [2], the HOMO is listed as -6.0 eV and the LUMO is on record as -2.3 eV.
